{"source": "patent US8409558B2", "about": "“Method for treatment of onychomycosis” (priority 2005, dated 2013)", "origin": "cited, not measured here", "test_system": "onychomycosis (nail fungus)", "data": [{"compound": "CN(C/C=C/C#CC(C)(C)C)Cc1cccc2ccccc12", "note": "[Lamisil, terbinafine]", "values": [{"measurement": "complete cure", "setting": "continuous oral therapy", "value": 41, "unit": "%"}, {"measurement": "mycological cure", "setting": "continuous oral therapy", "value": 71, "unit": "%"}, {"measurement": "cure of all nails (complete cure of all nails after 1 yr; % effective)", "setting": "oral therapy, Warshaw et al. JAAD October 2005", "value": 25, "unit": "%"}]}]}
